Measured values as given in US9580426B2, “Compounds that expand hematopoietic stem cells” (Novartis AG, priority 2008, dated 2017).

How the values were obtained:
mPB-derived CD34+ cells = assay: Genome-wide transcriptional profiling; assay type: cell-based, human; settings: 24 hours
From the text: The two genes that were the most highly repressed by treatment with Example 1 (cytochrome P450 1B1 [CYP1B1] and the aryl hydrocarbon receptor repressor [AHRR]) are transcriptionally regulated by the aryl hydrocarbon receptor (AHR). Therefore, compounds of the invention could be acting as an antagonist of AHR signaling.

AHR [1] = target: T1, AHR (Mus musculus, UniProt P30561); assay: Dioxin induced AHR dependent transcription, murine cells; assay type: cell-based
T1 construct: endogenous in cells; host or cells: unnamed murine cells
T1 sequence (P30561 10-848): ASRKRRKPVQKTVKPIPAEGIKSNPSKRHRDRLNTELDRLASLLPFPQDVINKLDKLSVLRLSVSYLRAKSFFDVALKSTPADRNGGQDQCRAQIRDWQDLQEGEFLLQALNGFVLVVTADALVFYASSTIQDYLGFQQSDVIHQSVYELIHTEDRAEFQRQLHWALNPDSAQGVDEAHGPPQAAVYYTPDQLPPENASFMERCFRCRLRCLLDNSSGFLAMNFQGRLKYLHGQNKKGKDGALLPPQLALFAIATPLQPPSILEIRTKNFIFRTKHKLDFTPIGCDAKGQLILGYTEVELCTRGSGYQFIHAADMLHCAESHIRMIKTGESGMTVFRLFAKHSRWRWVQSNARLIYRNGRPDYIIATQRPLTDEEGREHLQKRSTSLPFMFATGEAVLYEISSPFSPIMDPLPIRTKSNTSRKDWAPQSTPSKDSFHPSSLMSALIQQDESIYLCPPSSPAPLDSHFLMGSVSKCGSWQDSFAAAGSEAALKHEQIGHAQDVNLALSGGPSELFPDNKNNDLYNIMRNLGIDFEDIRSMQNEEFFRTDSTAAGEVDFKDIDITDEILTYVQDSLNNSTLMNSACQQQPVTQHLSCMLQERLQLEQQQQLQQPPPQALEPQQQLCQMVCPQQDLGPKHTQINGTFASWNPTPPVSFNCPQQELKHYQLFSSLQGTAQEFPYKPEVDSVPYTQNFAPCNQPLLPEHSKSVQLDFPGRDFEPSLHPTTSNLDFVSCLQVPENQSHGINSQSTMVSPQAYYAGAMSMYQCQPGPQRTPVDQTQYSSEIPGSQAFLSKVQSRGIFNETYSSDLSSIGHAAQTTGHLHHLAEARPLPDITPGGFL
Procedure: (§1) Further, the ability of Example 1 to block 2,3,7,8-tetrachlorodibenzo-p-dioxin (TCDD, dioxin)-mediated CYP1B1 mRNA expression by qPCR in mPB-derived CD34^+ cells was determined. Treatment with TCDD (3 nM) caused a 4.5-fold increase in the level of CYP1B1 mRNA compared with the vehicle control (0.01% toluene). […] To determine the effects of Example 1 in AHR transcription the ability of Example 1 to inhibit a dioxin-induced AHR dependent luciferase reporter gene assay was tested.

AHR [2] = target: T2, AHR (Rattus norvegicus, UniProt P41738); assay: Dioxin induced AHR dependent transcription, rat cells; assay type: cell-based
T2 construct: had no activity on rat cells; endogenous in cells; host or cells: unnamed rat cells
T2 sequence (P41738 10-853): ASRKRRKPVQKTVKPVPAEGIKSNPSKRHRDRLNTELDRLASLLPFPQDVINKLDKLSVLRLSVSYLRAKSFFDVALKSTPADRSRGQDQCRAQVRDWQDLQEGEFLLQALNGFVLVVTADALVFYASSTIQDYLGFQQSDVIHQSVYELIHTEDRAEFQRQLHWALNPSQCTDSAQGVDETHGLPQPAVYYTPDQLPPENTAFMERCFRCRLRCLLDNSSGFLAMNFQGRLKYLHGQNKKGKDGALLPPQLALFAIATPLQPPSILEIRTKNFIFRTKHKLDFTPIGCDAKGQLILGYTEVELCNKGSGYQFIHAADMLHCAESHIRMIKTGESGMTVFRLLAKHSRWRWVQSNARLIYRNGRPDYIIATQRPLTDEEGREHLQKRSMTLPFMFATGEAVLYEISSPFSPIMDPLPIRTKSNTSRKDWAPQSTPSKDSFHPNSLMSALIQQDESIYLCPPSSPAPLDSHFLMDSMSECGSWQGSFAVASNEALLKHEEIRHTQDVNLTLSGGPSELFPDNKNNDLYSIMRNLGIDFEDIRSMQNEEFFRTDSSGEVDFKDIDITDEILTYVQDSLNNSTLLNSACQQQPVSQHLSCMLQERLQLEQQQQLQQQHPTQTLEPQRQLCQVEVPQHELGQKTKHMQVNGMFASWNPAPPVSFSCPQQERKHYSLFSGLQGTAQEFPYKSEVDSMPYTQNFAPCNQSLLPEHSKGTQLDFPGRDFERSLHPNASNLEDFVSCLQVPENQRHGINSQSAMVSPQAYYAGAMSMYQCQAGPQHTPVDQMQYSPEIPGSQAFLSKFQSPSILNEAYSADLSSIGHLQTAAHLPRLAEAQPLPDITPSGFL
Procedure: as §1

mPB-derived CD34+ cell = assay: 7 day culture with AHR antagonists, expansion of CD34+ cells; assay type: cell-based, human; settings: 0.75 μM; 7 days
Procedure: To further explore the role of AHR signaling in HSCs two other AHR antagonists (alpha-naphthoflavone and CH-223191) were tested. Both compounds lead to dose dependent increases in the number of CD34^+ cells when cultured with mPB-derived CD34^+ cell for 7 days: inclusion of 1 μM CH223191 afforded a 2.2-fold expansion of CD34^+ cells; 0.75 μM α-naphthoflavone afforded a 1.9-fold expansion of CD34^+ cells while 0.75 μM Example 1 afforded a 3.4-fold expansion of total CD34^+ cells. […] Forty-eight hours following transduction, CD34+GFP^+ cells were purified by cell sorting and the levels of AHR were determined by qPCR. Both AHR targeting shRNAs led to decreases in AHR expression following transduction (81% with sh111 and 51% with sh242). These decreases were not seen in cells lacking GFP or in cells transduced with control virus.

down-regulation of 5 genes (most repressed: CYP1B1, AHRR) (mPB-derived CD34+ cells; 1 μM): > 70%
agonist activity (AHR dependent transcription) (AHR [1]): only weak agonist activity
inhibition of dioxin induced transcription (AHR [1]): only weakly inhibited
agonist activity (AHR dependent transcription) (AHR [2]): only weak agonist activity
inhibition of dioxin induced transcription (AHR [2]): no activity
Structure (SMILES): CC(C)n1cnc2c(NCCc3ccc(O)cc3)nc(-c3csc4ccccc34)nc21 [Example 1, 4-(2-(2-(benzo[b]thiophen-3-yl)-9-isopropyl-9H-purin-6-ylamino)ethyl)phenol]
up-regulation of 5 genes of >50,000 probe sets (mPB-derived CD34+ cells): greater than 3 fold
expansion of CD34+ cells (mPB-derived CD34+ cell): 3.4 fold
